Test results from PubChem BioAssay AID248 (DTP/NCI, 2004).
Several values for one entry are separate records, joined by “and”; a condition that tells them apart may be missing. Identical values can stand only once. Toxic doses and inconclusive results are not listed. Rule as the data show it: active = T/C of 150% or more; inactive = T/C below 125%.

Test system: L1210 leukemia ip in BDF1 mice, survival T/C
Test: NCI In Vivo Anticancer Drug Screen. Data for tumor model L1210 Leukemia (intraperitoneal) in B6D2F1 (BDF1) mice
Settings: endpoint: mean survival time, higher = longer survival
Summary of the method: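 Tumor cells were implanted, animals were treated, and survival was followed. The result divides the treated measurement by the vehicle-control measurement.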

[1] = dose: 100.0 mg/kg/injection, schedule: Q01DX001 (ip), vehicle: saline
[2] = dose: 100.0 mg/kg/injection, schedule: Q04DX003 (ip), vehicle: Klucel (hydroxypropylcellulose) (HPC)
[3] = dose: 200.0 mg/kg/injection, schedule: Q01DX001 (ip), vehicle: saline
[4] = dose: 400.0 mg/kg/injection, schedule: Q01DX001 (ip), vehicle: saline

Measured: T/C

CCC(=O)c1ccc2c(c1)N(C(C)CN(C)C)c1ccccc1S2 (stereo unspecified)
inactive: dose: 1.56 mg/kg/injection, schedule: Q03HX024 (ip), vehicle: saline 100 % of control | dose: 3.12 mg/kg/injection, schedule: Q03HX024 (ip), vehicle: saline 102 % of control | dose: 6.25 mg/kg/injection, schedule: Q01DX009 (ip), vehicle: saline 100 % of control and 106 % of control | dose: 6.25 mg/kg/injection, schedule: Q03HX024 (ip), vehicle: saline 100 % of control | dose: 6.25 mg/kg/injection, schedule: Q04DX003 (ip), vehicle: saline 101 % of control | dose: 12.5 mg/kg/injection, schedule: Q01DX009 (ip), vehicle: saline 104 % of control and 109 % of control and 110 % of control | dose: 12.5 mg/kg/injection, schedule: Q03HX024 (ip), vehicle: saline 100 % of control | dose: 12.5 mg/kg/injection, schedule: Q04DX003 (ip), vehicle: saline 103 % of control | dose: 18.75 mg/kg/injection, schedule: Q01DX001 (ip), vehicle: saline 107 % of control | dose: 25.0 mg/kg/injection, schedule: Q01DX009 (ip), vehicle: saline 106 % of control and 110 % of control and 116 % of control | dose: 25.0 mg/kg/injection, schedule: Q04DX003 (ip), vehicle: saline 103 % of control and 104 % of control | dose: 37.5 mg/kg/injection, schedule: Q01DX001 (ip), vehicle: saline 115 % of control | dose: 50.0 mg/kg/injection, schedule: Q01DX009 (ip), vehicle: saline 109 % of control and 118 % of control | dose: 50.0 mg/kg/injection, schedule: Q04DX003 (ip), vehicle: saline 109 % of control and 120 % of control | dose: 75.0 mg/kg/injection, schedule: Q01DX001 (ip), vehicle: saline 109 % of control | dose: 100.0 mg/kg/injection, schedule: Q01DX009 (ip), vehicle: saline 90 % of control | dose: 150.0 mg/kg/injection, schedule: Q01DX001 (ip), vehicle: saline 96 % of control

Cc1ccc(S(=O)(=O)Oc2ccc(C(C)(C)c3ccc(OS(=O)(=O)c4ccc(C)cc4)cc3)cc2)cc1
inactive: dose: 50.0 mg/kg/injection, schedule: Q01DX001 (ip), vehicle: saline 98 % of control | [1] 93 % of control | dose: 100.0 mg/kg/injection, schedule: Q01DX009 (ip), vehicle: Klucel (hydroxypropylcellulose) (HPC) 96 % of control | [2] 93 % of control | [3] 93 % of control | dose: 200.0 mg/kg/injection, schedule: Q01DX009 (ip), vehicle: Klucel (hydroxypropylcellulose) (HPC) 91 % of control | dose: 200.0 mg/kg/injection, schedule: Q04DX003 (ip), vehicle: Klucel (hydroxypropylcellulose) (HPC) 95 % of control | [4] 90 % of control | dose: 400.0 mg/kg/injection, schedule: Q01DX009 (ip), vehicle: Klucel (hydroxypropylcellulose) (HPC) 91 % of control | dose: 400.0 mg/kg/injection, schedule: Q04DX003 (ip), vehicle: Klucel (hydroxypropylcellulose) (HPC) 98 % of control

CC(=O)OC1CC(OC2C(O)CC(OC3C(O)CC(OC4CCC5(C)C(CCC6C5CCC5(C)C(C7=CC(=O)OC7)C(O)CC65O)C4)OC3C)OC2C)OC(C)C1OC1OC(CO)C(O)C(O)C1O (stereo unspecified)
inactive: dose: 12.5 mg/kg/injection, schedule: Q04DX003 (ip), vehicle: Klucel (hydroxypropylcellulose) (HPC) 97 % of control | dose: 25.0 mg/kg/injection, schedule: Q01DX001 (ip), vehicle: carboxymethylcellulose (CMC) 111 % of control | dose: 25.0 mg/kg/injection, schedule: Q04DX003 (ip), vehicle: Klucel (hydroxypropylcellulose) (HPC) 103 % of control | dose: 50.0 mg/kg/injection, schedule: Q01DX001 (ip), vehicle: carboxymethylcellulose (CMC) 105 % of control | dose: 50.0 mg/kg/injection, schedule: Q04DX003 (ip), vehicle: Klucel (hydroxypropylcellulose) (HPC) 112 % of control | [2] 97 % of control

CCOC(=O)/C(C)=N/Nc1cc(Cl)ccc1O
inactive: [1] 95 % of control | [3] 94 % of control | [4] 106 % of control
